Reference: patent publication US10335403B2, “Niacin formulation” (Zeenar Enterprises Pty Ltd., priority 2013, dated 2019)

Tested on: PGE2 production in 3T3 cells
Assay: PGE2 inhibition in 3T3 cells stimulated with calcium ionophore (Cayman PGE2 monoclonal EIA kit)
Assay type: cell-based
Conditions: Mus musculus, NIH3T3, at 0.488 μg/mL, relative to control cells not exposed, read-out: highest PGE2 inhibition observed
Protocol: As is known in the art, prostaglandin E2 (PGE2) activity can be used to measure anti-inflammatory activity of a substance. PGE2 inhibitory activity can be measured by the ability of test samples to inhibit PGE2 production in 3T3 cells when stimulated with calcium ionophore. As understood in the art, aspirin and ibuprofen may be included in the assay as a positive control. The in vitro production of PGE2 from 3T3 cells was measured using the Cayman Chemical Prostaglandin E2 monoclonal EIA (Enzyme Immuno Assay) kit. The cells were exposed to extracts derived from dunder and molasses and stimulated with calcium ionophore. The cell supernatants were then assayed for PGE2 production. The cell cytotoxicity of the samples was tested against 3T3 cells to confirm that the observed PGE2 inhibition was not due to cell cytotoxicity. Aspirin and ibuprofen were used as positive controls.

Work on `CC(C)Cc1ccc(C(C)C(=O)O)cc1` (stereo not shown) [ibuprofen] yielded an inhibition at 0.488 µg/mL of 42.1%.
